{
  "source": "patent US12178846B2",
  "about": "“Methods of using gap junctions as therapeutic targets for the treatment of degenerative disorders of the retina” (The Research Foundation for The State University of New York, priority 2014, dated 2024)",
  "key": {"GJs": {"system": "GJs", "test": "Retrograde Neurobiotin labeling of amacrine cells coupled to RGCs", "type": "cell-based, mouse", "procedure": "After experimental treatment, retinas were fixed with 4% paraformaldehyde in a 0.1 M phosphate buffer solution (PBS; pH 7.4) for 30 minutes at room temperature, cryoprotected in 30% sucrose, embedded in Tissue-Tek OCT Compound (Andwin Scientific) and frozen. Cryosections (18-20 μm thick) were cut and mounted on microscope slides. For immunostaining, sections were blocked in 3% donkey serum in 0.1M PBS supplemented with 0.5% Triton X-100, and 0.1% NaN3 for 1 h at room temperature. Primary antibodies were diluted in 0.1M PBS with 0.5% Triton X-100, 0.1% NaN3 and 1% donkey or goat serum. Tissues were then incubated with primary antibodies for 3 hours at room temperature or overnight at 4° C. The following primary antibodies were used: rabbit anti-calretinin 1:2000, rabbit anti-calbindin 1:1000, goat ant-ChAT 1:100 (all from Millipore), rabbit anti-GFAP 1:1000 (Invitrogen), rabbit anti-active caspase 3 1:200 (Abcam); mouse anti-Cx35/36 1:300, mouse anti-Cx45 1:300 (both from Millipore). After extensive washing with 0.1M PBS, tissues were incubated for 1 hour in secondary anti-goat/rabbit/mouse antibodies conjugated to Alexa-488 or Alexa-594 (1:200, Molecular Probes). Retinal sections were counterstained with the nuclear dye propidium iodide (PI, Molecular Probes). Neurobiotin was visualized with Alexa-488/594 conjugated streptavidin (Molecular Probes, 1:200). Tissues were then flat-mounted in Vectashield media (Vector Labs) and fluorescent images were taken using a fluorescent microscope or an Olympus FV1200 MPE confocal microscope.\nWe used retrograde labeling of RGCs with Neurobiotin to visualize populations of amacrine cells in the inner nuclear layer (INL) to which they were coupled. Globes with attached optic nerves were submersed in oxygenated Ames medium and a drop of Neurobiotin (4% in 0.1 M Tris buffer) was applied to the cut optic nerve for 40 minutes. For retrograde labeling limited to RGCs, Neurobiotin was replaced with Lucifer yellow (LY, 3%). […]"}, "[1]": {"system": "amacrine cells in the INL", "test": "NMDA-induced excitotoxic loss of amacrine cell subpopulations in the INL", "type": "cell-based, mouse", "procedure": "Various methods were employed to produce cell death. (1) Single cell apoptosis: CytC was injected into individual RGCs or Müller cells for 15 minutes after which retinas were incubated for 4 hours in oxygenated Ames medium before fixation. […] Both control and drug-treated retinas were then exposed for 1 hour to NMDA (100-300 μM) to induce excitotoxicity followed by 4 hours in the control Ames solution. (3) Retinal ischemia: Transient in vivo retinal ischemia was induced by introducing into the anterior chamber a 33-gauge needle attached to a saline-filled reservoir (0.9% sodium chloride) that was raised above the animal so as to increase intraocular pressure (IOP) to a level […]. MFA (2 μl, 500 μM) was administered intravitreally either 30 minutes before or 3 and 24 hours following the ischemic insult. The opposite eye was cannulated, but maintained at normal IOP to serve as a normotensive control. After 40-50 minutes, the needle was withdrawn and ischemia was evidenced by corneal whitening. After 7 days of reperfusion, mice were sacrificed and eyes were processed to assess retinal damage and neuronal death. […]\nIn some experiments, cells counts were limited to retrograde labeled RGCs in the GCL or certain subpopulation of amacrine cells, identified by specific markers, such as calretinin (CR), calbindin (CB) and choline acetyltransferase (ChAT) in the INL. Fluorescence intensity measures were made of glial fibrillary acidic protein (GFAP), which is overexpressed in Müller glial cells following retinal injury. Expression of GFAP and connexins were quantified by analysis of confocal images with Metavue software (Molecular Devices). Average pixel fluorescence intensities were measured by using uniform rectangular areas (3-5 per image) extending either from the GCL to the outer limiting membrane for GFAP or through the IPL for connexins. […]"}, "NMDA receptors": {"system": "NMDA receptors", "conditions": "at the concentrations tested here; cited from earlier work"}, "[2]": {"conditions": "MFA 50 μM 30 min, NMDA 300 μM 1 h, p<0.01"}},
  "note": "“Also recorded” adds a separate entry of the source.",
  "data": [
    {"compound": "Cc1ccc(Cl)c(Nc2ccccc2C(=O)O)c1Cl", "note": "[MFA, meclofenamic acid]", "values": [
      {"measurement": "number of ChAT-positive ACs labeled with Neurobiotin", "setting": "GJs; MFA application, p>0.1", "result": "did not produce a significant reduction; also recorded: little effect"},
      {"measurement": "Neurobiotin labeling of CR-positive ACs in the INL (coupling to RGCs)", "setting": "GJs; MFA prior to retrograde labeling, p<0.01", "result": "effectively eliminated all colocalized labeling; also recorded: significantly reduced"},
      {"measurement": "total number of CR-IR cells in the INL (per 500 μm section)", "setting": "GJs; MFA-treated retinas vs control, p>0.1", "result": "comparable to that in control"},
      {"measurement": "number of CB-immunolabeled ACs in the INL", "setting": "[1]; [2]", "result": "prevented the loss; also recorded: prevented such reduction"},
      {"measurement": "number of CR-immunolabeled ACs in the INL", "setting": "[1]; [2]", "result": "prevented the loss; also recorded: prevented reduction"},
      {"measurement": "number of ChAT-positive ACs in the INL", "setting": "[1]; MFA, NMDA-induced excitotoxicity, p>0.1", "result": "nor was this affected"},
      {"measurement": "inhibitory effect on NMDA receptors in neurons", "setting": "NMDA receptors", "result": "no inhibitory effect"}
    ]}
  ]
}
